In test [1] the test system is pMEK. Put plainly: pMEK AlphaLISA (MEK1 pS218/222), A549 cells, EGF stimulated. The test is classed as cell-based. The conditions noted are these: Homo sapiens, 2 h compound, EGF 30 ng/ml 15 min. Here is the method:
(§1) Determination of pMEK IC50s
(§2) A549 cells were cultured in F12K/10% FBS media (ATCC CAT #21127022) and were seeded at 10000 cells/well and HCT116 cells were cultured in McCoy's 5A/10% FBS media (Gibco Cat #30-2007) were seeded at 15000 cells/well in 384 microplates (Corning CAT #3765). Cells were incubated overnight in a TC incubator. Compounds were serially diluted and added to cells for 2 h in a TC incubator. At the end of the 2 h EGF (R&D Systems 236-EG-200) was added at a final EGF concentration of 30 ng/ml and incubated for 15 minutes at 37° C. in a TC incubator. AlphaLisa (Perkin Elmer) was performed according to manufacturer's instructions (Perkin Elmer CAT #ALPHA.SF ULTRA MEK1 PS218/222). The percent (%) inhibition at each concentration of compound is calculated based on and relative to the AlphaLISA signal in the HPE and ZPE control wells contained within each assay plate. The ZPE control wells contain cells and DMSO as 0% inhibition, and the HPE control wells only contain cells and control compound (Sellekchem Staurosporin CAT #S1421) as 100% inhibition.
In general terms: In Alpha technology, singlet oxygen from a donor bead excites a nearby acceptor bead.

Test [2] concerns pMEK. In words: pMEK AlphaLISA (MEK1 pS218/222), HCT116 cells, EGF stimulated. Format: cell-based. Particulars: Homo sapiens, HCT-116, 2 h compound, EGF 30 ng/ml 15 min. The method, then: as §1, §2
Test [3] relates to pERK Thr202/Tyr204. Put plainly: pERK HTRF detection of pERK Thr202/Tyr204, A549 cells. Format: cell-based. Particulars: Homo sapiens, 2 h compound. Here is the method:
(§3) pERK: Detection of pERK Thr202/Tyr204
(§4) A549 cultured in F-12K/10% FBS were seeded at 10000 cells/well, and HCT116 cultured in McCoy's 5A/10% FBS were seeded at 15000 cells/well cells into Corning 384-well plates, respectively. Cells were incubated overnight in a TC incubator. Compounds were serially diluted and added to cells for 2 h in a TC incubator. Cells were then lysed according to manufacture protocol (Cisbio CAT #: 64AERPEG). Cell lysate was mixed with phospho-ERK (Thr202/Tyr204) antibody solution at 5:1 (v:v). Lysate and antibody mixture were incubated overnight at room temperature. HTRF signal was read at two different wavelengths (665 nm and 620 nm) on a compatible HTRF reader.

In test [4] the test system is pERK Thr202/Tyr204. Put plainly: pERK HTRF detection of pERK Thr202/Tyr204, HCT116 cells. The test is classed as cell-based. Particulars: Homo sapiens, HCT-116, 2 h compound. Here is the method: as §3, §4
In general terms: TR-FRET usually uses a lanthanide donor and a delayed reading to cut background.

For the next test, the system named is HCT116 cells. Put plainly: HCT116 Cell Titer Glow assay (CTG). Particulars: Homo sapiens, HCT-116, 72 h; for IC50: read-out: CTG IC50 (nM) Cell Line: HCT116.20. On the technique in general: In ATP-based viability assays light output follows the ATP content of the culture.
The subject of a further test is IPC298 cells. In words: IPC298 Cell Titer Glow assay (CTG). Particulars: Homo sapiens, IPC-298, 72 h, read-out: CTG IC50 (nM) Cell Line: IPC298.2.

For the compound `CNS(=O)(=O)Nc1nccc(Cc2cncc(Nc3ccc(Br)cc3F)c2C)c1F` [Example 1, N-(4-bromo-2-fluorophenyl)-5-({3-fluoro-2-[(methylsulfamoyl)amino]pyridin-4-yl}methyl)-4-methylpyridin-3-amine], the IC50 in the test with pMEK [1], in the test with pMEK [2], in the test with pERK Thr202/Tyr204 [3], in the test on pERK Thr202/Tyr204 [4], with HCT116 cells and with IPC298 cells was less than 10 nM in each case.
Take `COC(=O)Nc1nccc(Cc2cncc(Nc3ccc(Br)cc3F)c2C)c1F` [Example 4, methyl N-[4-({5-[(4-bromo-2-fluorophenyl)amino]-4-methylpyridin-3-yl}methyl)-3-fluoropyridin-2-yl]carbamate]: the IC50 in the test on pMEK [1], with pMEK [2], with pERK Thr202/Tyr204 [3] and in the test with pERK Thr202/Tyr204 [4] was 10 to 100 nM in each case.
As to `CNS(=O)(=O)Nc1ccc(Cc2cncc(Nc3ccc(Br)cc3F)c2C)cc1` [Example 5, N-(4-bromo-2-fluorophenyl)-4-methyl-5-({4-[(methylsulfamoyl)amino]phenyl}methyl)pyridin-3-amine], the half-maximal inhibitory concentration (IC50) in the test on pMEK [1] is less than 10 nM; in the test on pMEK [2], less than 10 nM; in the test with pERK Thr202/Tyr204 [3], less than 10 nM; in the test with pERK Thr202/Tyr204 [4], less than 10 nM; in the test on HCT116 cells, 10 to 100 nM; in the test with IPC298 cells it was less than 10 nM.
`CNS(=O)(=O)Nc1nccc(Cc2cncc(Nc3ccc(Cl)cc3F)c2C)c1F` [Example 6, N-(4-chloro-2-fluorophenyl)-5-({3-fluoro-2-[(methylsulfamoyl)amino]pyridin-4-yl}methyl)-4-methylpyridin-3-amine]: the IC50 with pMEK [1] was less than 10 nM; in the test with pMEK [2], less than 10 nM; with pERK Thr202/Tyr204 [3], less than 10 nM; with pERK Thr202/Tyr204 [4], less than 10 nM; with HCT116 cells, 10 to 100 nM.
Consider `Cc1c(Cc2ccnc(S(C)(=O)=O)c2F)cncc1Nc1ccc(Br)cc1F` [Example 9, N-(4-bromo-2-fluorophenyl)-5-[(3-fluoro-2-methanesulfonylpyridin-4-yl)methyl]-4-methylpyridin-3-amine], for which the IC50 with pMEK [1] was less than 10 nM; in the test with pMEK [2], 10 to 100 nM; in the test with pERK Thr202/Tyr204 [3], less than 10 nM; in the test on pERK Thr202/Tyr204 [4], less than 10 nM.
For `CCc1ccc(Nc2cncc(Cc3ccnc(NS(=O)(=O)NC)c3F)c2C)c(F)c1` [Example 10, N-(4-ethyl-2-fluorophenyl)-5-({3-fluoro-2-[(methylsulfamoyl)amino]pyridin-4-yl}methyl)-4-methylpyridin-3-amine], the IC50 in the test on pMEK [1], in the test on pMEK [2], with pERK Thr202/Tyr204 [3], with pERK Thr202/Tyr204 [4], in the test on HCT116 cells and with IPC298 cells was less than 10 nM throughout.
In the case of `CNS(=O)(=O)Nc1nccc(Cc2cncc(Nc3ccc(C#N)cc3F)c2C)c1F` [Example 11, 3-fluoro-4-{[5-({3-fluoro-2-[(methylsulfamoyl)amino]pyridin-4-yl}methyl)-4-methylpyridin-3-yl]amino}benzonitrile], the IC50 in the test with pMEK [1] is 10 to 100 nM; with pMEK [2], less than 10 nM; with pERK Thr202/Tyr204 [3] it was less than 10 nM; in the test with pERK Thr202/Tyr204 [4] it was less than 10 nM; in the test on IPC298 cells, 10 to 100 nM. Further, in the test with HCT116 cells (read-out: CTG % cell viability 1000 uM HCT116.20, HCT116 cells, 72 hours, 1000 uM, percent cells remaining after treatment), the viability at 1000 µM stood at 31.8%.
With `CNC(=O)Nc1nccc(Cc2cncc(Nc3ccc(Br)cc3F)c2C)c1F` [Example 12, 1-[4-({5-[(4-bromo-2-fluorophenyl)amino]-4-methylpyridin-3-yl}methyl)-3-fluoropyridin-2-yl]-3-methylurea], the 50% inhibitory concentration (IC50) in the test with pMEK [1], in the test on pMEK [2], in the test with pERK Thr202/Tyr204 [3] and in the test on pERK Thr202/Tyr204 [4] was less than 10 nM in each case.

One may read the IC50 as the concentration that inhibits the measured activity by half. The viability is a per cent measure of how many cells are alive, often set against a control.

The values above are taken from patent US20250288571A1 (Nested Therapeutics, Inc., priority 2024, published 2025).
